Source: ChEMBL document CHEMBL3431459, “Roche carnitine palmitoyltransferase modulator screening data (supplementary data associated with the publication CHEMBL2216752)”
pIC50: −log10 of the molar value. Values after ≈ are worked out from the molar mass of the structure shown.

Tests used:
[1] = SUPPLEMENTARY: Lipophilicity (log D) Determination by high-throughput shake-flask; assay type: physicochemical; settings: octanol/water
[2] = SUPPLEMENTARY: Lyophilisation Solubility Assay (LYSA); assay type: physicochemical; settings: read-out: Kinetic_solubility
[3] = molecular target: T1, Carnitine O-palmitoyltransferase 2, mitochondrial (Homo sapiens, UniProt P23786); test: (§1) SUPPLEMENTARY: Inhibition of Carnitine palmitoyltransferase 2
T1 sequence (P23786 whole entry): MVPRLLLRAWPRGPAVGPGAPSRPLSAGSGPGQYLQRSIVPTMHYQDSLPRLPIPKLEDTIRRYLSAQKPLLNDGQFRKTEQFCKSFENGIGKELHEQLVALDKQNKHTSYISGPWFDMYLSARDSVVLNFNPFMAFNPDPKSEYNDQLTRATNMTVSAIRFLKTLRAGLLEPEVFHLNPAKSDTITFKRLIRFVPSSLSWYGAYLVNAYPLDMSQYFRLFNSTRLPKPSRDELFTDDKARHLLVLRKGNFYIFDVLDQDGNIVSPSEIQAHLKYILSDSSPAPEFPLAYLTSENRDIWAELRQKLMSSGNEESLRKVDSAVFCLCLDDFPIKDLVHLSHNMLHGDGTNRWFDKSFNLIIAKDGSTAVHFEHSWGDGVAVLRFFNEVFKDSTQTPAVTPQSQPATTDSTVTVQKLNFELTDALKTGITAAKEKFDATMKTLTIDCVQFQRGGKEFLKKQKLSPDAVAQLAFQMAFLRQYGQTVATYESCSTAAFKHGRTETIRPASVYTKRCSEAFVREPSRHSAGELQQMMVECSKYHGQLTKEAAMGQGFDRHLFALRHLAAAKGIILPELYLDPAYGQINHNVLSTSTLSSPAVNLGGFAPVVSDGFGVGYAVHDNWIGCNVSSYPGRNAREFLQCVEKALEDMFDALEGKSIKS

[4] = molecular target: T2, Carnitine O-palmitoyltransferase 2, mitochondrial (Rattus norvegicus, UniProt P18886); test: as §1
T2 sequence (P18886 whole entry): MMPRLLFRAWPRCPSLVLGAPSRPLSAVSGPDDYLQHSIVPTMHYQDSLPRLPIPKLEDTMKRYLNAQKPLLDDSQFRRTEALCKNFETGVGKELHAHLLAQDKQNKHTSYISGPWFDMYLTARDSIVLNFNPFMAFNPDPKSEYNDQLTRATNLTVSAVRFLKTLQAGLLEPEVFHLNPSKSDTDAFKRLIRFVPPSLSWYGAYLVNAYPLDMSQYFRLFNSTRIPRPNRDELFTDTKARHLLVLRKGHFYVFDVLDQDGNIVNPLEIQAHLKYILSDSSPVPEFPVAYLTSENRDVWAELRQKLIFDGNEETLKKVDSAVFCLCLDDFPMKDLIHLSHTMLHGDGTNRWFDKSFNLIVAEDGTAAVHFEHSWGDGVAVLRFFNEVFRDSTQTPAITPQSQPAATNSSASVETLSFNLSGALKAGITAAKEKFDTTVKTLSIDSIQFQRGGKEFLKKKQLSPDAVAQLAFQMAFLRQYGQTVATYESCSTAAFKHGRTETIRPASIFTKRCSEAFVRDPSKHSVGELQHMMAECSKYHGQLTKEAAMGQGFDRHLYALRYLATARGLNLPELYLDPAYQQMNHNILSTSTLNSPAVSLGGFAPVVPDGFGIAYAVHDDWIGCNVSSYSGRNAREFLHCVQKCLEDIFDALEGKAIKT

[5] = SUPPLEMENTARY: PAMPA permeability assay; assay type: physicochemical; settings: read-out: Permeability
[6] = molecular target: T3, Carnitine O-palmitoyltransferase 1, liver isoform (Homo sapiens, UniProt P50416); test: (§2) SUPPLEMENTARY: Inhibition of Carnitine palmitoyltransferase 1, liver isoform
T3 sequence (P50416 whole entry): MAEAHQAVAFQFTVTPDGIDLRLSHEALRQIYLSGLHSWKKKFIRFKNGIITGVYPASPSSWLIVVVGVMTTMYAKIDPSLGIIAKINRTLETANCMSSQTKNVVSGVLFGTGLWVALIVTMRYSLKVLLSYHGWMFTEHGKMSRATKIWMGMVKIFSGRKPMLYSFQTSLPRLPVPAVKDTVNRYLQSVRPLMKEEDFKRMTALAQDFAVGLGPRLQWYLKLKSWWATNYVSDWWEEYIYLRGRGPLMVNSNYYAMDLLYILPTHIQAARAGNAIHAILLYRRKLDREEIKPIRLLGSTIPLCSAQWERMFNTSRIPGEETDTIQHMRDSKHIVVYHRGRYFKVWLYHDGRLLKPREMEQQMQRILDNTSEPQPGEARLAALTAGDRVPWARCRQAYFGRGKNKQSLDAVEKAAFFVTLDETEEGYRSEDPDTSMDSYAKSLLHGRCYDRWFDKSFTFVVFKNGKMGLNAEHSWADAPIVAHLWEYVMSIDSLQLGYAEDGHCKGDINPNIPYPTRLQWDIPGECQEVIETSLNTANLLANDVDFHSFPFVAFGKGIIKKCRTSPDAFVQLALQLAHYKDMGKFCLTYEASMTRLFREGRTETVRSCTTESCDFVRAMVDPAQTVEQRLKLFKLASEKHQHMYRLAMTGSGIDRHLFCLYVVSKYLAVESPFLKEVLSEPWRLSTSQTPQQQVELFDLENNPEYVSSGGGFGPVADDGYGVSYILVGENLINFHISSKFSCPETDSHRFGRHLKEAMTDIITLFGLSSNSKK

[7] = molecular target: T4, Carnitine O-palmitoyltransferase 1, liver isoform (Rattus norvegicus, UniProt P32198); test: as §2
T4 sequence (P32198 whole entry): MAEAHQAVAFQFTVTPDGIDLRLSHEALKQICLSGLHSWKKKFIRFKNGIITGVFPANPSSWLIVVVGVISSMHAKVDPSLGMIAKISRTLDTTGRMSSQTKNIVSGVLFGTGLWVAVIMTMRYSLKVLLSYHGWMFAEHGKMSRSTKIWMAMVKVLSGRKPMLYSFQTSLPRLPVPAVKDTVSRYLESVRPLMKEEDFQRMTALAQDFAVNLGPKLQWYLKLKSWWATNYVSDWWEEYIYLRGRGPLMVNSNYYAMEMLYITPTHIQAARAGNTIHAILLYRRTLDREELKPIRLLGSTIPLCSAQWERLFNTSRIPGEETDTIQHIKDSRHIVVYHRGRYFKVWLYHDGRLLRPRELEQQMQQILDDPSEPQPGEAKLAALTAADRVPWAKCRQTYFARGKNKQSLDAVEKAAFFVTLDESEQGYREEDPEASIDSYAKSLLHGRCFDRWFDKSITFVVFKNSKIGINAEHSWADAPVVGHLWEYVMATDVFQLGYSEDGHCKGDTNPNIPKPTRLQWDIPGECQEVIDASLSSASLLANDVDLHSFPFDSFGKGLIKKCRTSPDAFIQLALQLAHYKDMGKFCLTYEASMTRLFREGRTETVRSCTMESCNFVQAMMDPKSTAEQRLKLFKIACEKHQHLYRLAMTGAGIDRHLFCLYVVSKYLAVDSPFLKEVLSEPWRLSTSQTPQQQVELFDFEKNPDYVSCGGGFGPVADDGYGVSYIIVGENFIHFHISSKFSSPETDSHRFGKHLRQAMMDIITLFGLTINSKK

[8] = molecular target: T5, Carnitine O-palmitoyltransferase 1, muscle isoform (Homo sapiens, UniProt Q92523); test: SUPPLEMENTARY: Inhibition of Carnitine palmitoyltransferase 1, muscle isoform; design: species or system Muscle tissue
T5 sequence (Q92523 whole entry): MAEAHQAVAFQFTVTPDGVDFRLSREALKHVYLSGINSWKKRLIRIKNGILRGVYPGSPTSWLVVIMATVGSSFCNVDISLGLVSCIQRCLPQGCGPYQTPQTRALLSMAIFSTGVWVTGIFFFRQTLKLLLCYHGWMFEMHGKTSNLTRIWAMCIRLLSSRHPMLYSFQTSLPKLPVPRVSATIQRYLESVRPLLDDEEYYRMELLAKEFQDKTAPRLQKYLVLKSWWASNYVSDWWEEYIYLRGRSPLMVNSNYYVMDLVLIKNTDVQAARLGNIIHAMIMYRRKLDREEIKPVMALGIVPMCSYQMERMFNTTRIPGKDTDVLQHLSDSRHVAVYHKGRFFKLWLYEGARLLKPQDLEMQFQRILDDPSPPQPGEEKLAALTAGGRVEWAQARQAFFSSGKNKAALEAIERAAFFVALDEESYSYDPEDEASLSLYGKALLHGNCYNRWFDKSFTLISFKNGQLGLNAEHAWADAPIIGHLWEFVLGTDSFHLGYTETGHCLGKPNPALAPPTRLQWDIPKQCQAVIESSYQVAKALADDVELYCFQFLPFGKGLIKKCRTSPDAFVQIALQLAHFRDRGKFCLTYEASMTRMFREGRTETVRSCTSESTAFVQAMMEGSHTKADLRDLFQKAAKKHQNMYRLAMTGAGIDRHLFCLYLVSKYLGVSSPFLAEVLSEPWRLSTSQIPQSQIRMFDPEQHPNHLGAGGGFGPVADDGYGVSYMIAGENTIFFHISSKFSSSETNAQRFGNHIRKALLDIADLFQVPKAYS

| Structure (SMILES) | logD [1] | solubility kinetic [2] | pIC50 [3] | pIC50 [4] | Papp [5] | pIC50 [6] | pIC50 [7] | pIC50 [8] |
| --- | --- | --- | --- | --- | --- | --- | --- | --- |
| CC(=O)Nc1cc(-c2noc([C@H]3CCCCN3C(=O)COc3ccccc3)n2)ccc1F | 3 | 18 µg/mL (≈ 41.1 µM) | < 4.00 | < 4.00 | 2.17 ×10⁻⁶ cm/s | 7.55 | 6.84 | < 4.00 |
| O=C(COc1ccccc1)N1CCCC[C@@H]1c1nc(-c2ccc3[nH]cnc3c2)no1 | 3.08 | 9.55 µg/mL (≈ 23.7 µM) | 4.72 | 4.72 | 2.8 ×10⁻⁶ cm/s | 7.58 | 6.97 | < 4.00 |
| COc1ccc(Cl)cc1S(=O)(=O)N(C)c1cc(C(=O)Nc2nc(CC(=O)O)cs2)cc2c1OCCO2 | -0.18 | 382 µg/mL (≈ 690 µM) | < 4.00 | < 4.00 | 1.28 ×10⁻⁶ cm/s | 7.09 | 6.96 | 5.81 |
| O=C(O)c1ccc(NC(=O)c2ccc(NS(=O)(=O)c3cc(Cl)cc(Cl)c3)s2)cc1 | -1.09 | 378 µg/mL (≈ 802 µM) | < 4.00 | < 4.00 | 0.01 ×10⁻⁶ cm/s | 6.82 | 6.58 | 5.36 |
| NS(=O)(=O)c1cccc(-c2noc([C@H]3CCCCN3C(=O)COc3ccccc3)n2)c1 | 2.17 | 33 µg/mL (≈ 74.6 µM) | 4.21 | 4.24 | 1.63 ×10⁻⁶ cm/s | 7.06 | 6.69 | < 4.00 |
| COc1ccc(Cl)cc1S(=O)(=O)N1COCc2ccc(C(=O)Nc3ccc(CC(=O)O)cc3)cc21 | -0.23 | 100 µg/mL (≈ 193 µM) | < 4.00 | < 4.00 | 1.39 ×10⁻⁶ cm/s | 6.73 | 6.32 | 5.48 |

Further lines, results first:

| logD [1] | solubility kinetic [2] | pIC50 [3] | pIC50 [4] | Papp [5] | pIC50 [6] | pIC50 [7] | pIC50 [8] | Structure (SMILES) |
| --- | --- | --- | --- | --- | --- | --- | --- | --- |
| 3.14 | 50 µg/mL (≈ 119 µM) | 4.30 | 4.11 | 2.71 ×10⁻⁶ cm/s | 6.97 | 6.32 | < 4.00 | CC(=O)Nc1ccc(-n2nnc([C@H]3CCCCN3C(=O)COc3ccccc3)n2)cc1 |
| 0.28 | 10 µg/mL (≈ 18.5 µM) | < 4.00 | < 4.00 | 2.43 ×10⁻⁶ cm/s | 7.62 | 7.47 | 6.13 | COc1ccc(Cl)cc1S(=O)(=O)N1CCOc2c(F)cc(C(=O)Nc3nc(CC(=O)O)cs3)cc21 |
| 2.77 | 9 µg/mL (≈ 17.7 µM) | 4.49 | 4.14 | 1.99 ×10⁻⁶ cm/s | 6.78 | 7.10 | 4.37 | O=C(Nc1ccc(C(=O)O)c(F)c1)c1ccc2c(c1)N(S(=O)(=O)c1cccc(C(F)(F)F)c1)CC2 |
| 2.75 | 17 µg/mL (≈ 42.1 µM) | 4.84 | < 4.00 | 6.32 ×10⁻⁶ cm/s | 6.78 | 6.48 | 4.11 | O=C(COc1ccccc1)N1CCCC[C@@H]1c1nc(-c2ccc3nccn3c2)no1 |
| 2.21 | 6 µg/mL (≈ 13.2 µM) | 5.35 | 4.64 | 0.18 ×10⁻⁶ cm/s | 6.70 | 6.83 | 5.60 | COc1ccc(Cl)cc1Sc1c[nH]c2ccc(C(=O)Nc3ccc(C(=O)O)cc3)cc12 |
| 0.37 | 54 µg/mL (≈ 109 µM) | < 4.00 | < 4.00 | 2.91 ×10⁻⁶ cm/s | 7.65 | 7.94 | 6.21 | O=C(O)Cc1csc(NC(=O)c2ccc3c(c2)N(S(=O)(=O)c2cccc(Cl)c2)CCO3)n1 |
| 1.83 | 136 µg/mL (≈ 284 µM) | 5.26 | 5.04 | 0.94 ×10⁻⁶ cm/s | 7.17 | 6.90 | 5.66 | COc1ccc(Cl)cc1CN1C(=O)C(C)(C)c2ccc(C(=O)Nc3ccc(C(=O)O)cc3)cc21 |
| 2.42 | 40 µg/mL (≈ 89.6 µM) | 4.29 | < 4.00 | 4.87 ×10⁻⁶ cm/s | 7.02 | 6.34 | < 4.00 | O=C(COc1ccccc1)N1CCCC[C@@H]1c1nc(-c2cccc(-n3cn[nH]c3=O)c2)no1 |
